# In PubChem BioAssay (NCI):
#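 Results reflect a 48-hour exposure of cells in 96-well plates to compound at five concentrations. TGI: total growth inhibition.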 *1 amine or outer side, *2 acyl side, *3 side chain or, on linkers, in order; H or OH if unused. Where a SMILES comes first, the peptide text is derived from it. Bridges are numbered along the chain shown (N, C = ends). [ ]: non-standard residue; d: D form. The star is where a group is joined. ξ: configuration not given here. ξOrn(4,5-diOH) = O=C(C(CC(O)C(O)N[*:3])N[*:1])[*:2]; ξhTyr(βξ-OH,γξ-OH) = NC(C(=O)O)C(O)C(O)c1ccc(O)cc1; ξPro(3ξ-OH,4ξ-Me) = CC1CNC(C(=O)O)C1O; X22 = CCCCC/C=C/C/C=C\CCCCCCCC(=O)*; Hyp = O=C(O)[CH]1C[CH](O)CN1
# Key:
# Experiment in all cases: growth of human tumour cells (NCI), 48 h
# 786-0 renal = test system: 786-0 renal
# A498 renal = test system: A498 renal
# A549 NSCLC = test system: A549 NSCLC
# ACHN renal = test system: ACHN renal
# BT-549 breast = test system: BT-549 breast
# CAKI-1 renal = test system: CAKI-1 renal
# CCRF-CEM leukemia = test system: CCRF-CEM leukemia
# COLO 205 colon = test system: COLO 205 colon
# DU-145 prostate = test system: DU-145 prostate
# EKVX NSCLC = test system: EKVX NSCLC
# HCC-2998 colon = test system: HCC-2998 colon
# HCT-116 colon = test system: HCT-116 colon
# HCT-15 colon = test system: HCT-15 colon
# HOP-62 NSCLC = test system: HOP-62 NSCLC
# HOP-92 NSCLC = test system: HOP-92 NSCLC
# HS 578T breast = test system: HS 578T breast
# HT29 colon = test system: HT29 colon
# IGROV1 ovarian = test system: IGROV1 ovarian
# K-562 leukemia = test system: K-562 leukemia
# KM12 colon = test system: KM12 colon
# LOX IMVI melanoma = test system: LOX IMVI melanoma
# M14 melanoma = test system: M14 melanoma
# MCF7 breast = test system: MCF7 breast
# MDA-MB-231 breast = test system: MDA-MB-231 breast
# MDA-MB-435 = test system: MDA-MB-435
# MOLT-4 leukemia = test system: MOLT-4 leukemia
# NCI-H23 lung = test system: NCI-H23 lung
# NCI-H460 lung = test system: NCI-H460 lung
# NCI/ADR-RES ovarian = test system: NCI/ADR-RES ovarian
# OVCAR-3 ovarian = test system: OVCAR-3 ovarian
# OVCAR-4 ovarian = test system: OVCAR-4 ovarian
# OVCAR-5 ovarian = test system: OVCAR-5 ovarian
# OVCAR-8 ovarian = test system: OVCAR-8 ovarian
# PC-3 prostate = test system: PC-3 prostate
# RXF 393 renal = test system: RXF 393 renal
# SF-268 CNS = test system: SF-268 CNS
# SF-295 CNS = test system: SF-295 CNS
# SF-539 CNS = test system: SF-539 CNS
# SK-MEL-2 melanoma = test system: SK-MEL-2 melanoma
# SK-MEL-28 melanoma = test system: SK-MEL-28 melanoma
# SK-MEL-5 melanoma = test system: SK-MEL-5 melanoma
# SK-OV-3 ovarian = test system: SK-OV-3 ovarian
# SN12C renal = test system: SN12C renal
# SNB-19 CNS = test system: SNB-19 CNS
# SW-620 colon = test system: SW-620 colon
# T-47D breast = test system: T-47D breast
# TK-10 renal = test system: TK-10 renal
# U251 CNS = test system: U251 CNS
# UACC-257 melanoma = test system: UACC-257 melanoma
# UACC-62 melanoma = test system: UACC-62 melanoma
# UO-31 renal = test system: UO-31 renal
# HL-60(TB) leukemia = test system: HL-60(TB) leukemia
# MALME-3M melanoma = test system: MALME-3M melanoma
# NCI-H226 lung = test system: NCI-H226 lung
# NCI-H522 lung = test system: NCI-H522 lung
# RPMI-8226 leukemia = test system: RPMI-8226 leukemia
# SNB-75 CNS = test system: SNB-75 CNS
# SR leukemia = test system: SR leukemia
smiles,measurement,setting,value
O=C(NC1CCCCC1)c1n[nH]nc1Cl,TGI,786-0 renal,> 100 µM
same,TGI,A498 renal,> 100 µM
same,TGI,A549 NSCLC,> 100 µM
same,TGI,ACHN renal,> 100 µM
same,TGI,BT-549 breast,> 100 µM
same,TGI,CAKI-1 renal,> 100 µM
same,TGI,CCRF-CEM leukemia,> 100 µM
same,TGI,COLO 205 colon,> 100 µM
same,TGI,DU-145 prostate,> 100 µM
same,TGI,EKVX NSCLC,> 100 µM
same,TGI,HCC-2998 colon,> 100 µM
same,TGI,HCT-116 colon,> 100 µM
same,TGI,HCT-15 colon,> 100 µM
same,TGI,HOP-62 NSCLC,> 100 µM
same,TGI,HOP-92 NSCLC,> 100 µM
same,TGI,HS 578T breast,> 100 µM
same,TGI,HT29 colon,> 100 µM
same,TGI,IGROV1 ovarian,> 100 µM
same,TGI,K-562 leukemia,> 100 µM
same,TGI,KM12 colon,> 100 µM
same,TGI,LOX IMVI melanoma,> 100 µM
same,TGI,M14 melanoma,> 100 µM
same,TGI,MCF7 breast,> 100 µM
same,TGI,MDA-MB-231 breast,> 100 µM
same,TGI,MDA-MB-435,> 100 µM
same,TGI,MOLT-4 leukemia,> 100 µM
same,TGI,NCI-H23 lung,> 100 µM
same,TGI,NCI-H460 lung,> 100 µM
same,TGI,NCI/ADR-RES ovarian,> 100 µM
same,TGI,OVCAR-3 ovarian,> 100 µM
same,TGI,OVCAR-4 ovarian,> 100 µM
same,TGI,OVCAR-5 ovarian,> 100 µM
same,TGI,OVCAR-8 ovarian,> 100 µM
same,TGI,PC-3 prostate,> 100 µM
same,TGI,RXF 393 renal,> 100 µM
same,TGI,SF-268 CNS,> 100 µM
same,TGI,SF-295 CNS,> 100 µM
same,TGI,SF-539 CNS,> 100 µM
same,TGI,SK-MEL-2 melanoma,> 100 µM
same,TGI,SK-MEL-28 melanoma,> 100 µM
same,TGI,SK-MEL-5 melanoma,> 100 µM
same,TGI,SK-OV-3 ovarian,> 100 µM
same,TGI,SN12C renal,> 100 µM
same,TGI,SNB-19 CNS,> 100 µM
same,TGI,SW-620 colon,> 100 µM
same,TGI,T-47D breast,> 100 µM
same,TGI,TK-10 renal,> 100 µM
same,TGI,U251 CNS,> 100 µM
same,TGI,UACC-257 melanoma,> 100 µM
same,TGI,UACC-62 melanoma,> 100 µM
same,TGI,UO-31 renal,> 100 µM
"CCCCC/C=C/C/C=C\CCCCCCCC(=O)NC1CC(O)C(O)NC(=O)C2C(O)C(C)CN2C(=O)C(C(C)O)NC(=O)C(C(O)C(O)c2ccc(O)cc2)NC(=O)C2CC(O)CN2C(=O)C(C(C)O)NC1=O (stereo not drawn) (X22-[ξOrn(4,5-diOH)]T[Hyp][ξhTyr(βξ-OH,γξ-OH)]T[ξPro(3ξ-OH,4ξ-Me)]; lactam 1-C; configuration not given here)",TGI,BT-549 breast,> 100 µM
same,TGI,HOP-92 NSCLC,> 100 µM
same,TGI,NCI-H23 lung,> 100 µM
same,TGI,UACC-257 melanoma,> 100 µM
COc1cc2c(cc1OCCCOc1cc3c(cc1OC)C(=O)N1CCC[C@H]1C(=O)N3)N=C[C@@H]1CCCN1C2=O,TGI,786-0 renal,> 100 µM
same,TGI,A498 renal,37.9 µM
same,TGI,A549 NSCLC,57.4 µM
same,TGI,ACHN renal,38.5 µM
same,TGI,BT-549 breast,83.3 µM
same,TGI,CAKI-1 renal,88.4 µM
same,TGI,COLO 205 colon,12.1 µM
same,TGI,DU-145 prostate,> 100 µM
same,TGI,EKVX NSCLC,46.4 µM
same,TGI,HCC-2998 colon,31 µM
same,TGI,HCT-116 colon,> 100 µM
same,TGI,HCT-15 colon,> 100 µM
same,TGI,HL-60(TB) leukemia,42.3 µM
same,TGI,HOP-62 NSCLC,> 100 µM
same,TGI,HS 578T breast,84.4 µM
same,TGI,HT29 colon,35.4 µM
same,TGI,IGROV1 ovarian,33.4 µM
same,TGI,K-562 leukemia,27.3 µM
same,TGI,KM12 colon,67 µM
same,TGI,LOX IMVI melanoma,18.7 µM
same,TGI,M14 melanoma,55.4 µM
same,TGI,MALME-3M melanoma,29.8 µM
same,TGI,MCF7 breast,27.3 µM
same,TGI,MDA-MB-231 breast,44 µM
same,TGI,MDA-MB-435,31.5 µM
same,TGI,MOLT-4 leukemia,1.41 µM
same,TGI,NCI-H226 lung,35.5 µM
same,TGI,NCI-H23 lung,57.4 µM
same,TGI,NCI-H460 lung,70.4 µM
same,TGI,NCI-H522 lung,6.34 µM
same,TGI,NCI/ADR-RES ovarian,> 100 µM
same,TGI,OVCAR-3 ovarian,54 µM
same,TGI,OVCAR-4 ovarian,42.4 µM
same,TGI,OVCAR-5 ovarian,59.6 µM
same,TGI,OVCAR-8 ovarian,> 100 µM
same,TGI,PC-3 prostate,57 µM
same,TGI,RPMI-8226 leukemia,21.2 µM
same,TGI,RXF 393 renal,31 µM
same,TGI,SF-268 CNS,> 100 µM
same,TGI,SF-295 CNS,46.5 µM
same,TGI,SK-MEL-2 melanoma,69.6 µM
same,TGI,SK-MEL-28 melanoma,46.8 µM
same,TGI,SK-MEL-5 melanoma,26.8 µM
same,TGI,SN12C renal,61.5 µM
same,TGI,SNB-19 CNS,> 100 µM
same,TGI,SNB-75 CNS,36 µM
same,TGI,SR leukemia,3.71 µM
same,TGI,SW-620 colon,56.5 µM
same,TGI,T-47D breast,77.3 µM
same,TGI,TK-10 renal,84.5 µM
same,TGI,U251 CNS,38.8 µM
same,TGI,UACC-257 melanoma,50 µM
same,TGI,UACC-62 melanoma,19.5 µM
same,TGI,UO-31 renal,40.5 µM
